From a melting point compilation (Tetko et al.; mined from patent text by program, amines drawn as free bases though some values may be those of a salt)

SMILES | melting point
OC1(c2ccc(C(F)(F)F)cc2)CCN(Cc2ccccc2)CC1 | 115 to 117 °C
CCCCCCCCCCCCC1=CC(=O)c2c(Cl)cccc2C1=O | 57.5 to 58.5 °C
CCCCCC(=O)NC(C)(C)C(=O)O | 141 to 143 °C
CCNC(=NC#N)NCCSCc1csc(NC(=N)N)n1 | 181 to 182 °C
CC(C)(C)C(=O)Nc1cc(Cl)c([N+](=O)[O-])cc1Cl | 142 to 145 °C
CCOC(=O)CC(=O)c1cccc([N+](=O)[O-])c1C | 50 to 51 °C
O=C(Nc1ccc(Br)cn1)[NH+]([O-])C(=O)c1c(Cl)cccc1Cl (configuration not stated) | 230 to 235 °C
Nc1sc2c(c1C(=O)c1ccc3c(c1)OCO3)CCN(C(=O)c1ccccc1)C2 | 211 to 212 °C
O=C1COc2ccc(C3=Nc4cc(Cl)ccc4SC3c3ccccc3)cc2N1 (configuration not stated) | 234 to 236 °C
CS(=O)(=O)Nc1cc(F)c(Cl)cc1I | 123 to 124 °C
CC(=O)Nc1nc2ccc(S(=O)(=O)n3c(CCC(=O)O)cc4cc(Cl)ccc43)cc2s1 | > 250 °C
NC(=O)Nc1ccc(O)cc1 | 96.3 to 98.3 °C
O=C(O)C(O)(c1ccc(F)cc1)c1ccc(F)cc1 | 133 to 136 °C
Cn1cc(Oc2ccccc2)c(=O)c(-c2ccccc2)c1 | 176 to 177 °C
COC(=O)Nc1cn2cc(S(=O)(=O)c3ccccc3)ccc2n1 | 300 °C
CSc1nc(C)cc(Cl)n1 | 37 to 38 °C
N#CCOc1ccc2cc(Br)ccc2c1Br | 130 to 132 °C
CCCCCCCc1ccc(C(=O)CCCCC(=O)O)cc1 | 80 to 81 °C
O=C(O)CCC(=O)c1ccc(NC(=O)C2CC2)cc1 | 229 to 230 °C
O=[N+]([O-])c1cccc(C(c2cccc([N+](=O)[O-])c2)(C(F)(F)F)C(F)(F)F)c1 | 118 to 119 °C

SMILES | melting point
CCCCCCCNC(=O)N(C)c1ncc(-c2ccc(C[C@H](OCC)C(=O)O)cc2)s1 | 97 °C
CCOC(=O)c1sc2cc(OCc3ccccc3)ccc2c1Sc1ccccc1 | 96 to 97 °C
ClCc1ccc2cc(Cl)ccc2c1 | 107 to 110 °C
O=C1CC2(CCCC2)CC(=O)N1CCCCN1CCN(c2nsc3ccccc23)CC1 | 128 to 130 °C
CCONC(CC)=C1C(=O)OC(CC)=C(Br)C1=O | 76.5 to 77.5 °C
O=C(Nc1ccccc1)Oc1ccc(N=C=S)cc1 | 139 to 142 °C
CC1=C(C(=O)OCCN(C)c2ccccc2)C(c2ccccc2C(F)(F)F)c2c(ccnc2OC(C)C)N1 (configuration not stated) | 114 to 116 °C
O=C(O)c1ccc(F)s1 | 140 to 142 °C
CCOC(=O)c1nc2ccccc2nc1C | 74 to 75 °C
N=C(Nc1cc(Cl)cc(NC(=O)C=Cc2ccccc2Cl)c1)c1ccc(NCc2ccccn2)cc1 | 119 to 122 °C
CC(C)(C)OC(=O)NC1CCN(CCO)CC1 | 66 °C
Cc1ccc(Cl)cc1NC(=S)Nc1cc[nH]n1 | 221 to 222 °C
Cc1nc(-c2ccccc2)cc(-c2cccc(C#N)c2)c1NC(=O)CCN1CCOCC1 | 150 to 152 °C
Nc1c(-c2ccccc2O)c2ccccc2[nH]c1=O | 235 to 237 °C
O=C(Nc1cccc2c1C(=O)c1c-2n[nH]c1-c1ccc(N2CCNCC2)cc1)NN1CCC[C@@H]1COCc1ccccc1 | 207 °C
O=c1c2ccccc2nc(-c2sc(Nc3ccccc3)nc2-c2ccccc2)n1-c1ccc(Cl)cc1 | 218 to 222 °C
CC(C)NC(=O)c1c(NC(=O)c2cc(C(F)(F)F)nn2-c2ncccc2Cl)ccc2cc[nH]c12 | 240 to 242 °C
Cc1cnc2c(S(=O)(=O)N[C@@H](CCCc3cn(C(c4ccccc4)(c4ccccc4)c4ccccc4)cn3)C(=O)O)cccc2c1 | 170 °C
Cc1cccc(C)c1CNc1cc(C2=NCCN2C)cc2c1nc(C)n2C | 118 to 119 °C
CCCCCCCCCCCCCCCCCC(=O)SC1CCN(C(C(=O)OC)c2ccccc2F)CC1 (configuration not stated) | 50 to 52 °C

SMILES | melting point
Cc1cc2c(cc1C(=O)N=C(N)N)S(=O)(=O)CC2(C)O (configuration not stated) | 243 to 245 °C
O=c1c2ccccc2nc2n1CCc1c-2[nH]c2ccc(Cl)cc12 | 310 to 312 °C
Nc1c(NC(=O)CC23CCCN2CCC3)cnc2ccccc12 | 205 to 209 °C
CC12CCC3C(CCC4C(O)CCCC43C)C1CCC2OC1CCCCO1 (configuration not stated) | 167 to 170 °C
N=C(N)c1ccc(-c2ccc(-c3ccc(C(=N)N)cn3)o2)cc1 | 232 °C
C[C@H](NC(=O)[C@@H](C)NC(=O)[C@@H](N)CC(=O)O)C1CCCC1 | 204 to 205 °C
O=C(O)C1=NN(c2cccc(Cl)c2)C(c2ccccc2)CC1 (configuration not stated) | 157 to 158 °C
Ic1cccc2cc3ccccc3cc12 | 152 to 154 °C
Cc1nc2c([N+](=O)[O-])cc3nc(O)c(O)nc3c2nc1C | > 300 °C
Nc1nc(-n2cc(C(=O)O)c(=O)c3cc(F)c(F)c(Cl)c32)c(Cl)cc1F | 280 °C
CC(=NC(C#N)=C(N)C#N)c1ccc2ccccc2c1 | 188 to 189 °C
CCOC(=O)c1nc2sc(Br)c([N+](=O)[O-])c2c(=O)[nH]1 | 284 °C
CCCCc1ncc(/C=C(\Cc2cccs2)c2nnn[nH]2)n1Cc1ccccc1[N+](=O)[O-] | 231 to 234 °C
N#Cc1ccc(C2NC(=O)Cc3ccccc32)cc1 (configuration not stated) | 165 to 168 °C
O=C(Nc1ccc([N+](=O)[O-])cc1)C(F)F | 188 to 189 °C
COc1ccc(-c2ccnc3c(C(=O)c4cccs4)cnn23)cc1NC(=O)NC(C)C | 202 to 204 °C
Cc1c(C(=O)N(CC(=O)O)c2ccc(OCC(C)(C)C)c(C#N)c2)cnn1-c1ccc(F)cc1 | 105 to 110 °C
O=C(O)C(=O)c1ccc(OCCOc2cc3ccccc3c3ccccc23)cc1 | 179 to 180 °C

Results, then the compound that gave them:

melting point | SMILES
140 to 142 °C | CNc1ccc(-c2ocnc2-c2cc(OC)cc(OC)c2)cc1F
164 to 167 °C | CCCCC(CC)C(=O)Nc1ccc2ccn(Cc3ccc(C(=O)OC)c4ccoc34)c2c1 (configuration not stated)
97.5 to 98.5 °C | COCc1cc(C(O)CNCCCCCCOCCc2ccc(OC)cc2)ccc1O (configuration not stated)
119 to 120 °C | CC(=O)N1CCC(CC(O)c2ccc(N(C)C)cc2)CC1 (configuration not stated)
48 to 50 °C | CCC1(C)Oc2cccc(O)c2O1 (configuration not stated)
77 to 78 °C | COc1ccc(C2CCCC(=O)N2c2ccccc2)cc1 (configuration not stated)
110 to 112 °C | CCOCn1c(C(N)=O)c(OC(C)C)c2cc(OC)ccc21
310 to 318 °C | CC1(C)C(=O)Nc2cc([N+](=O)[O-])c(NC(=O)c3ccncc3)cc21
231 to 232 °C | CC1(CN2CCN(c3cccccc3=O)CC2)NC(=O)NC1=O (configuration not stated)
78 to 79 °C | COc1cc(C#N)ccc1C(Br)Br
> 300 °C | CC(=O)OCC1OC(n2c3ncccc3c3c4c(c5c6cccnc6[nH]c5c32)C(=O)N(C)C4=O)C(OC(C)=O)C(OC(C)=O)C1OC(C)=O (configuration not stated)
151 to 153 °C | CCOC(=O)c1cnc2c(N(C)Cc3ccccc3)cc(CN3CCOCC3)cc2c1O
186 °C | CC1(C)Oc2ccc(OCCCC(F)(F)F)cc2[C@H](NS(C)(=O)=O)[C@H]1O
85 to 90 °C | COc1cc(O)c(C(=O)c2ccccc2F)c(Cl)c1
308 to 310 °C | Cc1cc(-c2c(F)cc3c(=O)c(Cc4c(O)cccc4O)cn(C4CC4)c3c2F)cc(C)n1
125 to 126 °C | Cc1cnnc2c1C(=O)CC(c1ccsc1)C2 (configuration not stated)
160 to 161 °C | COc1cc(C)cc(OC)c1N(C)C(C)=O
152 to 154 °C | CCOC(=O)Cc1[nH]c(C(=O)c2ccccc2)c(C)c1C(=O)OCC
127 to 128 °C | COC(=O)c1c(O)cc(OCC(O)c2ccc3c(c2)C(C)(C)CCC3(C)C)cc1O (configuration not stated)
86 to 87 °C | COc1cc(F)ccc1OCC#Cc1ccc(Cl)nc1
210 °C | CC#CCOc1ccc(S(=O)(=O)C2(C(=O)NO)CCOCC2)cc1
105 to 107 °C | COc1ccccc1CN1CN2CCCC1C2c1ccccc1 (configuration not stated)

melting point | SMILES
140 to 142 °C | COc1ccc(-n2nc(Cl)cc2-c2ccc(OCCNC(N)=O)cc2)cc1
162 °C | Cc1c(CC(=O)O)c2cc(C(=O)C(C)C)cc3c2n1CCC3
68 °C | C[Si](C)(C)CCCOC1CCN(c2ccc([N+](=O)[O-])cc2)C1 (configuration not stated)
47 to 49 °C | CCOC(=O)c1ccc2c(c1)CC(Cc1cncs1)C2 (configuration not stated)
113 to 116 °C | COC(=O)Cc1cnc(-c2ccccc2)n1Cc1ccc([N+](=O)[O-])cc1
184 to 185 °C | COCC1=Nc2ccccc2C(=O)C1
195 to 197 °C | CCC(=O)N1Cc2cc(OC)ccc2C(Cc2c(Cl)cncc2Cl)=N1
139 °C | Nc1cc(=O)n(Cc2ccc(Br)cc2)[nH]1
195 to 220 °C | CC1(C)C(=O)Nc2cc3[nH]c(-c4ccccc4)nc3cc21
92 to 93 °C | CCC(CC)(CC(=O)Nc1cccc(OCc2ccc3ccc(F)cc3n2)c1)C(=O)OC
190 to 192 °C | COc1cc(COc2cccc3c2CN(C2CCC(=O)NC2=O)C3=O)ccc1OCCN(C)C (configuration not stated)
153 to 155 °C | O=C1CCCC(=O)N1c1ccncc1
222 to 225 °C | CC(=O)Nc1ccc(C2=NC(C)(C)C(c3ccncc3)C2)cc1 (configuration not stated)
146 to 148 °C | COc1ccc(-c2nc(C(F)(F)F)cn2-c2ccc(C#N)cc2)cc1
108 to 109 °C | CCN1CN(c2cccc(C(F)(F)F)c2)c2ncccc2C1=O
143 to 147 °C | CCOC(=O)C1=C(C)NC(C)=C(C(=O)OCC=CC=Cc2ccccc2)C1c1cccc([N+](=O)[O-])c1 (configuration not stated)
177 to 178 °C | CC1(C)CCC(C)(C)c2cc(CCCSN3C=CC=NC3)c(/C=C/c3ccc(C(=O)O)cc3)cc21
98 °C | COc1ccc(S(=O)(=O)C(C)(Cc2ccc(OCCN3CCCCC3)cc2)C(=O)NO)cc1 (configuration not stated)
85 to 86 °C | COc1ccc(CN2C(=O)C[C@H]2[C@@H]2COC(C)(C)O2)c(OC)c1
54 °C | C#CCN1CCCc2ccc(OC(=O)NCCCCCCC)cc21
172 to 174 °C | COc1ccc2oc(C)c(Cc3cccc(NS(=O)(=O)C(F)(F)F)c3)c(=O)c2c1
126 to 127 °C | Cc1cccc(OCC2=NCCN2C(=O)Oc2cccc(C)c2C)c1C
